Experiments:
ErbB2 or EGFR = target: T1, ErbB2 or EGFR; test: ErbB enzyme substrate phosphorylation assay (HTRF), Method B (enzyme pre-incubated with compound 1 hour); type: biochemical; settings: Table 1, enzyme Method B: enzyme mix incubated with compound 1 hour at 20° C., reaction started with substrate mix; class over ErbB2 or EGFR
T1 construct: enzymes purified from a baculovirus expression system
Experimental: Compounds of the present invention were tested for EGFR, ErbB-2, and ErbB-4 protein tyrosine kinase inhibitory activity in substrate phosphorylation assays using enzymes purified from a baculovirus expression system. Reagent production was conducted essentially as described in Brignola, P. S., et al, (2002) J. Biol. Chem. 277(2): 1576-1585.
The method measures the ability of the isolated enzyme to catalyse the transfer of the gamma-phosphate from ATP onto the tyrosine residue of a biotinylated synthetic peptide referenced “Peptide C” in Brignola, P. S., et al, (2002) J. Biol. Chem. 277(2):1576-1585. The extent of tyrosine phosphorylation was measured using an anti-phosphotyrosine antibody, and quantified by homogenous time-resolved fluorescence (HTRF).
Reactions were performed in black 384-well polystyrene flat-bottom plates in a final volume of 20 μl. Assays were performed by adding 10 μl of each of the following solutions, substrate Mix and enzyme mix: The Substrate mix contained 100 mM 3-[N-morpholino]propanesulfonic acid (MOPS) (pH 7.5), 2 mM MnCl2, 20 μM ATP, 0.01% Tween-20, 0.1 mg/mL (BSA), 0.8 uM peptide substrate, and 1 mM dithiothreitol. The enzyme mix contained 100 mM MOPS (pH7.5); 0.01% Tween-20; 0.1 mg/mL BSA, and either 0.8 nM EGFR, 10 nM ErbB2, or 1 nM ErbB4
During the course of these studies, two separate methods have been used to measure the potency of compounds. In Method A, the substrate mix was added to the compound plates first, then the reaction was started by adding the enzyme mix. In Method B, the enzyme mix was added to the compound plates and the plates were incubated at 20° C. for 1 hour. The reactions were then started by adding the substrate mix.
After initiating the reaction with either method describe above, the reactions were allowed to proceed for 90 minutes at 20° C. The reactions were then terminated by the addition of 20 μl 100 mM EDTA to each well. 40 μl/well of HTRF detection mix were added to the assay plates. The final concentrations of the detection reagents were: 100 mM HEPES (pH7.5), 0.1 mg/mL BSA, 15 nM streptavidin-labeled allophycocyanin (PerkinElmer), and 1 nM europium-labeled anti-phosphotyrosine antibody (PerkinElmer). Assay plates were left unsealed and were counted in a Wallac Multilabel Counter 1420 (PerkinElmer).
Compounds under analysis were dissolved in Me2SO to 1.0 mM and serially diluted 1 to 3 with Me2SO through twelve dilutions. 1 μl of each concentration was transferred to the corresponding well of an assay plate. This creates a final compound concentration range from 0.00027 to 47.6 μM.
The data for dose responses were plotted as % Inhibition calculated with the data reduction formula 100*(1−(U1−C2)/(C1−C2)) versus concentration of compound where U is the unknown value, C1 is the average control value obtained for 4.76% DMSO, and C2 is the average control value obtained for 0.035 M EDTA. Data were fitted with a curve described by: y=((Vmax*x)/(K+x))+Y2 where Vmax is the upper asymptote, Y2 is the Y intercept, and K is the IC50. The results for each compound were recorded as pIC50s, calculated as follows: pIC50=−Log 10(K)

[1] = system: BT474 and HN5 tumor cell lines; test: Celltiter Glo growth inhibition assay (cellular Method B); type: cell-based; settings: Homo sapiens, BT-474, 72 h; Table 2, Method B Celltiter Glo, 3 days; class over BT474 and HN5;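 further: class counts the more potent of the two cell lines (BT474 or HN5)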
Experimental: (§1) Human breast tumor cells (BT474) were cultured in RPMI, (Invitrogen, 22400) containing 10% fetal bovine serum (FBS). Human head and neck tumor cells (HN5) were cultured in low glucose DMEM (Invitrogen, 12320) containing 10% FBS. Human colon tumor cells (Colo205) were cultured in DMEM (Invitrogen, 10564) containing 10% FBS. All cell lines were maintained at 37° C. in a humidified 5% CO2, 95% air incubator. Cells were harvested using trypsin/EDTA, counted using a haemocytometer, and plated in 30 microliters of the appropriate media described above, at the following densities, in a half area, black-walled, 96-well tissue culture plate (Corning 3882): BT474 3,000 cells/well, HN5 500 cells/well and Colo205 cells, 3,000 cells/well. The next day, compounds were diluted in DMEM containing 100 mg/ml gentamicin, from 10 mM stock solutions in DMSO. 30 microliters/well of these dilutions were added to the 30 microliters/well of media currently on the cell plates. Medium containing 0.6% DMSO was added to control wells. The final concentration of DMSO in all wells was 0.3%. Cells were incubated at 37° C., 5% CO2 for 3 days. Cell biomass was estimated using Celltiter Glo (Promega G7571). Briefly, plates were removed from the incubator and allowed to equilibrate to rt for 30 minutes. 60 microliters of Celltiter Glo reagent were added to each well of the treated cells and plates were shaken on an orbital plate shaker for 2 min. Plates were incubated without shaking for 30 more min and read in a luminometer with an integration time of 0.5 seconds per well. Percent inhibition of cell growth was calculated relative to vehicle treated control wells. Concentration of compound that inhibits 50% of vehicle control cell growth (IC50) was interpolated using nonlinear regression (Levenberg-Marquardt) and the equation, y=Vmax*(1−(x/(K+x)))+Y2, where “K” was equal to the IC50.

Colo205 tumor cell lines = test: as above; type: cell-based; settings: Homo sapiens, COLO 205, 72 h, Table 3, Method B Celltiter Glo, 3 days
Experimental: as §1

IC50 [1] [nM]	IC50 (Colo205 tumor cell lines) [nM]	Compound	Activity (Method) (ErbB2 or EGFR)
100 to 1000	100 to 1000	CN(C)Cc1cccc(Nc2nccc(-c3c(-c4cccc(NC(=O)Cc5cccs5)c4)nn4ccccc34)n2)c1 [Example 7, N-(3-{3-[2-({3-[(Dimethylamino)methyl]phenyl}amino)-4-pyrimidinyl]pyrazolo[1,5-a]pyridin-2-yl}phenyl)-2-(2-thienyl)acetamide]	+++ (B) (at least one pIC50 measurement of greater than 7 against either ErbB2 or EGFR)
–	–	CN1CCc2ccc(Nc3nccc(-c4c(-c5cccc(NC(=O)Cc6cccs6)c5)nn5ccccc45)n3)cc2C1 [Example 8]	+++ (B) (at least one pIC50 measurement of greater than 7 against either ErbB2 or EGFR)
100 to 1000	100 to 1000	Cc1ncoc1-c1cccc(Nc2nccc(-c3c(-c4cccc(NC(=O)Cc5cccs5)c4)nn4ccccc34)n2)c1 [Example 52, N-{3-[3-(2-{[3-(4-methyl-1,3-oxazol-5-yl)phenyl]amino}pyrimidin-4-yl)pyrazolo[1,5-a]pyridin-2-yl]phenyl}-2-(2-thienyl)acetamide]	–
–	–	Cc1c(Nc2nccc(-c3c(-c4ccc(F)c(NC(=O)Cc5cccs5)c4)nn4ccccc34)n2)cccc1OCCN(C)C [Example 60, N-[5-(3-{2-[(3-{[2-(Dimethylamino)ethyl]oxy}-2-methylphenyl)amino]-4-pyrimidinyl}pyrazolo[1,5-a]pyridin-2-yl)-2-fluorophenyl]-2-(2-thienyl)acetamide]	++ (B) (at least one pIC50 measurement greater than 6 against either ErbB2 or EGFR but no measurement greater than pIC50 of 7)
–	–	CN1CCc2ccc(Nc3nccc(-c4c(-c5ccc(F)c(NC(=O)Cc6cccs6)c5)nn5ccccc45)n3)cc2C1 [Example 63, N-[2-Fluoro-5-(3-{2-[(2-methyl-1,2,3,4-tetrahydro-7-isoquinolinyl)amino]-4-pyrimidinyl}pyrazolo[1,5-a]pyridin-2-yl)phenyl]-2-(2-thienyl)acetamide]	+++ (B) (at least one pIC50 measurement of greater than 7 against either ErbB2 or EGFR)
–	–	COc1ccc(-c2nn3ccccc3c2-c2ccnc(Nc3cccc(OCCN(C)C)c3C)n2)cc1NC(=O)Cc1cccs1 [Example 64, N-[5-(3-{2-[(3-{[2-(Dimethylamino)ethyl]oxy}-2-methylphenyl)amino]-4-pyrimidinyl}pyrazolo[1,5-a]pyridin-2-yl)-2-(methyloxy)phenyl]-2-(2-thienyl)acetamide]	+ (B) (no pIC50 measurement greater than 6 against either ErbB2 or EGFR)
–	–	COc1ccc(-c2nn3ccccc3c2-c2ccnc(Nc3cccc(OCCN(C)C)c3)n2)cc1NC(=O)Cc1cccs1 [Example 65, N-[5-(3-{2-[(3-{[2-(Dimethylamino)ethyl]oxy}phenyl)amino]-4-pyrimidinyl}pyrazolo[1,5-a]pyridin-2-yl)-2-(methyloxy)phenyl]-2-(2-thienyl)acetamide]	+ (B) (no pIC50 measurement greater than 6 against either ErbB2 or EGFR)
–	–	COc1ccc(-c2nn3ccccc3c2-c2ccnc(Nc3cc(OCCN(C)C)ccc3C)n2)cc1NC(=O)Cc1cccs1 [Example 66, N-[5-(3-{2-[(5-{[2-(Dimethylamino)ethyl]oxy}-2-methylphenyl)amino]-4-pyrimidinyl}pyrazolo[1,5-a]pyridin-2-yl)-2-(methyloxy)phenyl]-2-(2-thienyl)acetamide]	+ (B) (no pIC50 measurement greater than 6 against either ErbB2 or EGFR)
–	–	COc1ccc2c(-c3ccnc(Nc4cccc(OCCN(C)C)c4)n3)c(-c3cccc(NC(=O)C4(c5ccccc5)CC4)c3)nn2c1 [Example 67, N-{3-[3-{2-[(3-{[2-(Dimethylamino)ethyl]oxy}phenyl)amino]-4-pyrimidinyl}-6-(methyloxy)pyrazolo[1,5-a]pyridin-2-yl]phenyl}-1-phenylcyclopropanecarboxamide]	++ (B) (at least one pIC50 measurement greater than 6 against either ErbB2 or EGFR but no measurement greater than pIC50 of 7)
–	–	COc1ccc2c(-c3ccnc(Nc4cccc(OCCN(C)C)c4)n3)c(-c3cccc(NC(=O)/C=C/c4ccccc4)c3)nn2c1 [Example 68, (2E)-N-{3-[3-{2-[(3-{[2-(Dimethylamino)ethyl]oxy}phenyl)amino]-4-pyrimidinyl}-6-(methyloxy)pyrazolo[1,5-a]pyridin-2-yl]phenyl}-3-phenyl-propenamide]	+++ (B) (at least one pIC50 measurement of greater than 7 against either ErbB2 or EGFR)
–	–	COc1ccc2c(-c3ccnc(Nc4cccc(OCCN(C)C)c4)n3)c(-c3cccc(NC(=O)NCc4ccc(F)cc4)c3)nn2c1 [Example 70, N-{3-[3-{2-[(3-{[2-(Dimethylamino)ethyl]oxy}phenyl)amino]-4-pyrimidinyl}-6-(methyloxy)pyrazolo[1,5-a]pyridin-2-yl]phenyl}-N-[(4-fluorophenyl)methyl]urea]	+++ (B) (at least one pIC50 measurement of greater than 7 against either ErbB2 or EGFR)
–	–	Cc1ccc2c(-c3ccnc(Nc4cccc(CN5CCCC5)c4)n3)c(-c3cccc(NC(=O)Cc4cccs4)c3)nn2c1 [Example 71, N-{3-[6-Methyl-3-(2-{[3-(1-pyrrolidinylmethyl)phenyl]amino}-4-pyrimidinyl)pyrazolo[1,5-a]pyridin-2-yl]-phenyl}-2-(2-thienyl)acetamide]	+++ (B) (at least one pIC50 measurement of greater than 7 against either ErbB2 or EGFR)
–	–	Cc1ccc2c(-c3ccnc(Nc4cccc(OCCN(C)C)c4)n3)c(-c3cccc(NC(=O)Cc4cccs4)c3)nn2c1 [Example 72, N-[3-(3-{2-[(3-{[2-(Dimethylamino)ethyl]oxy}phenyl)amino]-4-pyrimidinyl}-6-methylpyrazolo[1,5-a]pyridin-2-yl)phenyl]-2-(2-thienyl)acetamide]	+++ (B) (at least one pIC50 measurement of greater than 7 against either ErbB2 or EGFR)
–	–	CC(=O)N1CCN(c2ccc(Nc3nccc(-c4c(-c5cccc(NC(=O)Cc6cccs6)c5)nn5cc(C)ccc45)n3)cc2)CC1 [Example 73, N-{3-[3-(2-{[4-(4-Acetyl-1-piperazinyl)phenyl]amino}-4-pyrimidinyl)-6-methylpyrazolo[1,5-a]pyridin-2-yl]phenyl}-2-(2-thienyl)acetamide]	+++ (B) (at least one pIC50 measurement of greater than 7 against either ErbB2 or EGFR)

From US7807673B2, “2-pyrimidinyl pyrazolopyridine ErbB kinase inhibitors” (GlaxoSmithKline LLC, priority 2005, dated 2010)
